Reference: PubChem BioAssay AID256 (DTP/NCI, 2004)
Where “and” joins values, the source holds several entries; their conditions need not be identical. Equal entries are not always repeated. Inconclusive results and toxic doses are left out. The calls were made as follows: active = survival T/C of 150% or more; inactive = T/C below 125% in these data.

Tested on: CD2F1 mice, L1210 leukemia ip, survival T/C
Assay: NCI In Vivo Anticancer Drug Screen. Data for tumor model L1210 Leukemia (intraperitoneal) in CD2F1 (CDF1) mice
Settings: endpoint: mean survival time, higher = longer survival
Method in brief: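 Mice carrying a transplanted tumor received test compound or vehicle alone. The value is the measurement in the treated group divided by that in the vehicle-treated control group.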

[1] = dose: 100.0 mg/kg/injection, schedule: Q01DX009 (ip), vehicle: saline with Tween-80
[2] = dose: 200.0 mg/kg/injection, schedule: Q01DX009 (ip), vehicle: saline with Tween-80
[3] = dose: 400.0 mg/kg/injection, schedule: Q01DX009 (ip), vehicle: saline with Tween-80
[4] = dose: 100.0 mg/kg/injection, schedule: Q01DX009 (ip), vehicle: saline
[5] = dose: 200.0 mg/kg/injection, schedule: Q01DX009 (ip), vehicle: saline
[6] = dose: 400.0 mg/kg/injection, schedule: Q01DX009 (ip), vehicle: saline

Measured: T/C

CCCCCCCCN(C)Cc1cc(C(C)(C)C)cc(-c2ccccc2)c1O
inactive: [1] 96 % of control | [2] 96 % of control | [3] 96 % of control

C/C=C1/CN2[C@H]3C[C@@]45c6ccccc6N[C@@H]4[C@@H]2C[C@H]1[C@@]3(C(=O)OC)[C@H]5O
inactive: [1] 91 % of control | dose: 100.0 mg/kg/injection, schedule: Q04DX003 (ip), vehicle: saline with Tween-80 95 % of control | [2] 95 % of control | dose: 200.0 mg/kg/injection, schedule: Q04DX003 (ip), vehicle: saline with Tween-80 100 % of control | [3] 91 % of control | dose: 400.0 mg/kg/injection, schedule: Q04DX003 (ip), vehicle: saline with Tween-80 103 % of control

O=C1OC(C(O)CO)C(O)=C1O (stereo not given)
inactive: dose: 100.0 mg/kg/injection, schedule: Q01DX001 (ip), vehicle: saline 101 % of control | [4] 93 % of control and 108 % of control | dose: 100.0 mg/kg/injection, schedule: Q04DX002 (ip), vehicle: saline 109 % of control and 112 % of control | dose: 100.0 mg/kg/injection, schedule: Q04DX003 (ip), vehicle: saline 106 % of control | dose: 200.0 mg/kg/injection, schedule: Q01DX001 (ip), vehicle: saline 101 % of control | [5] 86 % of control and 102 % of control | dose: 200.0 mg/kg/injection, schedule: Q04DX002 (ip), vehicle: saline 97 % of control and 104 % of control | dose: 200.0 mg/kg/injection, schedule: Q04DX003 (ip), vehicle: saline 98 % of control | dose: 400.0 mg/kg/injection, schedule: Q01DX001 (ip), vehicle: saline 106 % of control | [6] 89 % of control and 96 % of control | dose: 400.0 mg/kg/injection, schedule: Q04DX002 (ip), vehicle: saline 96 % of control and 102 % of control | dose: 400.0 mg/kg/injection, schedule: Q04DX003 (ip), vehicle: saline 98 % of control

CCN(C(=O)Nc1ccc(Cl)cc1)c1ccccc1C
inactive: [1] 97 % of control | [2] 94 % of control | [3] 90 % of control

COC(=O)C1C2(C)CCc3cc(OC)ccc3C2=CC(=O)C1(C)C(=O)OC (stereo not given)
inactive: dose: 100.0 mg/kg/injection, schedule: Q04DX003 (sc), vehicle: steriod suspending solution 97 % of control | dose: 200.0 mg/kg/injection, schedule: Q04DX003 (sc), vehicle: steriod suspending solution 103 % of control | dose: 400.0 mg/kg/injection, schedule: Q04DX003 (sc), vehicle: steriod suspending solution 98 % of control

CC(=O)ON(C(C)=O)c1ccc(S(=O)(=O)c2ccc(N(OC(C)=O)C(C)=O)cc2)cc1
inactive: [4] 92 % of control | [5] 90 % of control | [6] 89 % of control

ClCC(Cl)CN1CCCCC1 (stereo not given)
inactive: dose: 25.0 mg/kg/injection, schedule: Q01DX009 (ip), vehicle: saline 100 % of control | dose: 50.0 mg/kg/injection, schedule: Q01DX009 (ip), vehicle: saline 103 % of control

CN=S(=O)(OCCCCCOS(=O)(=NC)c1ccc(C)cc1)c1ccc(C)cc1 (stereo not given)
inactive: dose: 0.39 mg/kg/injection, schedule: Q01DX009 (ip), vehicle: saline with Tween-80 97 % of control | dose: 0.78 mg/kg/injection, schedule: Q01DX009 (ip), vehicle: saline with Tween-80 103 % of control | dose: 1.56 mg/kg/injection, schedule: Q01DX009 (ip), vehicle: saline with Tween-80 97 % of control | dose: 3.12 mg/kg/injection, schedule: Q01DX009 (ip), vehicle: saline with Tween-80 105 % of control | dose: 6.25 mg/kg/injection, schedule: Q01DX009 (ip), vehicle: saline with Tween-80 95 % of control and 100 % of control | dose: 12.5 mg/kg/injection, schedule: Q01DX009 (ip), vehicle: saline with Tween-80 97 % of control and 101 % of control | dose: 25.0 mg/kg/injection, schedule: Q01DX009 (ip), vehicle: saline with Tween-80 103 % of control | dose: 50.0 mg/kg/injection, schedule: Q01DX009 (ip), vehicle: saline with Tween-80 97 % of control | [1] 101 % of control | [2] 100 % of control

O=C1OC(O)(c2ccc(Cl)cc2)C(Cc2ccccc2)=C1c1ccccc1 (stereo not given)
inactive: dose: 100.0 mg/kg/injection, schedule: Q04DX002 (ip), vehicle: saline with Tween-80 97 % of control | dose: 200.0 mg/kg/injection, schedule: Q04DX002 (ip), vehicle: saline with Tween-80 90 % of control | dose: 400.0 mg/kg/injection, schedule: Q04DX002 (ip), vehicle: saline with Tween-80 102 % of control
